Assay [1] concerns the target T1, METTL3/14 (Homo sapiens, UniProt Q86U44).
T1 construct: The enzyme used was full-length his-tagged METTL3; His; made in house
Nature of the assay: METTL3/14 methyltransferase assay (METTL3_14 RFMS, RapidFire mass spectrometry).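 Note: recombinant His-tagged METTL3 with FLAG-tagged METTL14 from baculovirus, SAH product quantified by mass spectrometry against isotope-labelled internal standards, 60 min at room temperature, scaled between no-RNA and DMSO-only wells.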 The format is biochemical. To be noted: read-out: METTL3_14 RFMS IC50.

Assay [2] deals with MOLM-13 cells. Description: MOLM13 CTG - analysis of cell proliferation (Cell Titre Glo). The assay is classed as cell-based. The following applies: Homo sapiens, geometric mean, read-out: CTG MOLM13 cells IC50 GEOMEAN.
The mark [3] stands for this setting: 5 nM METTL3/14, 0.2 μM RNA substrate, 0.5 μM SAM, lower limit of the assay IC50=5 nM, Compounds 63-265.

Where two headings read alike, the source gives them in different places.

T1 sequence (Q86U44 whole entry): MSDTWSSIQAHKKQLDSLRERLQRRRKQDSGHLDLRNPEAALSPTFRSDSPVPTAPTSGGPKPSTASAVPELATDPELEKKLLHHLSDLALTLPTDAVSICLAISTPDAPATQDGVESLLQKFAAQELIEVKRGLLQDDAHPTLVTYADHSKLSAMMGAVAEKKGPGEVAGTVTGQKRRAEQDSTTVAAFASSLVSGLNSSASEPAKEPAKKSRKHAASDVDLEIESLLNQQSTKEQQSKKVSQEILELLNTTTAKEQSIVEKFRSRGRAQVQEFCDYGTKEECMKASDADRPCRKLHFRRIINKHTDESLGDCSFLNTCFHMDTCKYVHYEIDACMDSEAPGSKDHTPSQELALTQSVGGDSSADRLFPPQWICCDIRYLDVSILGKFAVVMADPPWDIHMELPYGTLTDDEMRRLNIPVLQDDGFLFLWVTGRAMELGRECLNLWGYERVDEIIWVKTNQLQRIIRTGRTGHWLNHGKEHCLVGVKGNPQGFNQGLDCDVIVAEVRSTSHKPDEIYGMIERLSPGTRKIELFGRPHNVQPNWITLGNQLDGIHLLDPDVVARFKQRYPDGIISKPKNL
T1 sequence (Q9HCE5 whole entry partner): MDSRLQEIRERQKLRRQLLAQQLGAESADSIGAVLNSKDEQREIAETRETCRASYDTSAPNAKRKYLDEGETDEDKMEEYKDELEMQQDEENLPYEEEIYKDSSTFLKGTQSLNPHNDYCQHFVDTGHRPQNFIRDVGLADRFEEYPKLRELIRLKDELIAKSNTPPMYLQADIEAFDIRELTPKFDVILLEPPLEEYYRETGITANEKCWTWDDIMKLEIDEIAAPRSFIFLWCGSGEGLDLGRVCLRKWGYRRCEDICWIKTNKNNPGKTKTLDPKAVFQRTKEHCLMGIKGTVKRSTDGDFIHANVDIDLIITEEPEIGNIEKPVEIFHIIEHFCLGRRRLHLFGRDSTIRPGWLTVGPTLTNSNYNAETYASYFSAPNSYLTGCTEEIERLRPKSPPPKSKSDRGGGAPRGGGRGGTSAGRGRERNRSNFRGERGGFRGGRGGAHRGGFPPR

For orientation: IC50 means the concentration needed to halve the response being measured. Turning to `CC(C)(NCc1ccc2nc(CNC(=O)c3cc(=O)n4ccccc4n3)cn2c1)c1ccccc1` [Compound 78, 4-oxo-N-[(6-{[(2-phenylpropan-2-yl)amino]methyl}imidazo[1,2-a]pyridin-2-yl)methyl]-4H-pyrido[1,2-a]pyrimidine-2-carboxamide], the IC50 is 0.163 µM in assay [1] (setting [3]) and 6.04 µM in assay [2].

Consider `O=C(NCc1cn2cc(CNCC3CC(F)(F)C3)ccc2n1)c1cc(=O)n2ccccc2n1` [Compound 83, N-{[6-({[(3,3-difluoro-cyclobutyl)methyl]amino}methyl)imidazo[1,2-a]pyridin-2-yl]methyl}-4-oxo-4H-pyrido [1,2-a]pyrimidine-2-carboxamide], for which the IC50 in assay [1] (setting [3]) amounted to 0.0106 µM; in assay [2], 4.12 µM.

Regarding `O=C(NCc1cn2cc(CNCC34CC(C(F)(F)F)(C3)C4)ccc2n1)c1cc(=O)n2ccccc2n1` [Compound 87, 4-oxo-N-({6-[({[3-(trifluoromethyl)bicyclo[1.1.1]pentan-1-yl]methyl}amino)methyl]imidazo[1,2-a]pyridin-2-yl}methyl)-4H-pyrido [1,2-a]pyrimidine-2-carboxamide], the IC50 in assay [1] was 0.0485 µM; in assay [2] it was not below 30 µM.

For `O=C(NCc1cn2cc(CNC3(c4ccccc4)COC3)ccc2n1)c1cc(=O)n2ccccc2n1` [Compound 89, 4-oxo-N-[(6-{[(3-phenyloxetan-3-yl)amino]methyl}imidazo[1,2-a]pyridin-2-yl)methyl]-4H-pyrido[1,2-a]pyrimidine-2-carboxamide], the figures for the IC50 in assay [1] (setting [3]) and in assay [2] were 1.86 µM and 13.1 µM, respectively.

As for `O=C(NCc1cn2cc(CNCCC3CC3)ccc2n1)c1cc(=O)n2ccccc2n1` [Compound 103, N-[(6-{[(2-cyclopropylethyl)amino]methyl}imidazo[1,2-a]pyridin-2-yl)methyl]-4-oxo-4H-pyrido[1,2-a]pyrimidine-2-carboxamide], the figures for the IC50 in assay [1] (setting [3]) and in assay [2] were 0.0137 µM and 6.8 µM, respectively.

In the case of `O=C(NCc1cn2cc(CN3CCCCC3)ccc2n1)c1cc(=O)n2ccccc2n1` [Compound 104, 4-oxo-N-({6-[(piperidin-1-yl)methyl]imidazo[1,2-a]pyridin-2-yl}methyl)-4H-pyrido[1,2-a] pyrimidine-2-carboxamide], the IC50 stood at 0.0691 µM in assay [1] (setting [3]) and 8.73 µM in assay [2].

For the compound `O=C(NCc1cn2cc(CN[C@@H]3C[C@H]3C(F)(F)F)ccc2n1)c1cc(=O)n2ccccc2n1` [Compound 112, 4-oxo-N-{[6-({[(1R,2R)-2-(trifluoromethyl)cyclopropyl]amino}methyl)imidazo[1,2-a]pyridin-2-yl]methyl}-4H-pyrido[1,2-a] pyrimidine-2-carboxamide], the figures for the IC50 in assay [1] (setting [3]) and in assay [2] were 0.755 µM and 12.7 µM, respectively.

Regarding `CN(Cc1ccc2nc(CNC(=O)c3cc(=O)n4ccccc4n3)cn2c1)CC1CCCCC1` [Compound 114, N-[(6-{[(cyclohexyl-methyl)(methyl)amino]methyl}imidazo [1,2-a]pyridin-2-yl)methyl]-4-oxo-4H-pyrido [1,2-a]pyrimidine-2-carboxamide], the figures for the IC50 in assay [1] (setting [3]) and in assay [2] were 0.244 µM and 2.8 µM, respectively.

Regarding `O=C(NCc1cn2cc(CNC3CCC3)ccc2n1)c1cc(=O)n2ccccc2n1` [Compound 126, N-({6-[(cyclobutylamino)methyl]imidazo [1,2-a]pyridin-2-yl}methyl)-4-oxo-4H-pyrido [1,2-a]pyrimidine-2-carboxamide], the IC50 was 0.0798 µM in assay [1] (setting [3]) and not below 30 µM in assay [2].

In the case of `CC(C)(C)NCc1ccc2nc(CNC(=O)c3cc(=O)n4ccccc4n3)cn2c1` [Compound 127, N-({6-[(tert-butylamino)methyl]imidazo [1,2-a]pyridin-2-yl}methyl)-4-oxo-4H-pyrido[1,2-a] pyrimidine-2-carboxamide], the IC50 in assay [1] (setting [3]) was 0.429 µM; in assay [2], not below 30 µM.

As to `O=C(NCc1cn2cc(CNCc3ccccc3)ccc2n1)c1cccc2[nH]ncc12` [Compound 178, N-({6-[(benzylamino)methyl]imidazo [1,2-a]pyridin-2-yl}methyl)-1H-indazole-4-carboxamide], the results for the concentration for half-maximal inhibition (IC50) in assay [1] (setting [3]) and in assay [2] were 0.209 µM and 9.89 µM, respectively.

Consider `CC1(C)CCN(Cc2ccc3nc(CNC(=O)c4cc(=O)n5ccccc5n4)cn3c2)CC1` [Compound 193, N-({6-[(4,4-dimethylpiperidin-1-yl)methyl]imidazo[1,2-a]pyridin-2-yl}methyl)-4-oxo-4H-pyrido[1,2-a]pyrimidine-2-carboxamide], for which the results for the IC50 in assay [1] (setting [3]) and in assay [2] were 0.0124 µM and 2.46 µM, respectively.

For `CC(C)(C)C(C)(C)NCc1ccc2nc(CNC(=O)c3cc(=O)n4ccccc4n3)cn2c1` [Compound 195, 4-oxo-N-[(6-{[(2,3,3-trimethylbutan-2-yl)amino]methyl}imidazo [1,2-a]pyridin-2-yl)methyl]-4H-pyrido[1,2-a]pyrimidine-2-carboxamide], the values for the half-maximal inhibitory concentration (IC50) in assay [1] (setting [3]) and in assay [2] were 0.0324 µM and 9.77 µM, respectively.

As to `CC(NCc1ccc2nc(CNC(=O)c3cc(=O)n4ccccc4n3)cn2c1)C1CCCCC1` (stereo not drawn) [Compound 203, N-[(6-{[(1-cyclohexylethyl)amino]methyl}imidazo[1,2-a]pyridin-2-yl)methyl]-4-oxo-4H-pyrido [1,2-a]pyrimidine-2-carboxamide], the IC50 in assay [1] (setting [3]) worked out at 0.032 µM; in assay [2] it was 8.74 µM.

For `O=C(NCc1cn2cc(CNCC3(F)CCC3)ccc2n1)c1cc(=O)n2ccccc2n1` [Compound 206, N-{[6-({[(1-fluorocyclobutyl)methyl]amino}methyl)imidazo [1,2-a]pyridin-2-yl]methyl}-4-oxo-4H-pyrido [1,2-a]pyrimidine-2-carboxamide], the values for the half-inhibitory concentration (IC50) in assay [1] (setting [3]) and in assay [2] were 0.0156 µM and 9.13 µM, respectively.

In the case of `CC1(F)CCN(Cc2ccc3nc(CNC(=O)c4cc(=O)n5ccccc5n4)cn3c2)CC1` [Compound 207, N-({6-[(4-fluoro-4-methylpiperidin-1-yl)methyl]imidazo[1,2-a]pyridin-2-yl}methyl)-4-oxo-4H-pyrido [1,2-a]pyrimidine-2-carboxamide], the results for the IC50 in assay [1] (setting [3]) and in assay [2] were 0.0379 µM and 10.2 µM, respectively.

Take `O=C(NCc1cn2cc(CNCC3(O)CCCCC3)ccc2n1)c1cc(=O)n2ccccc2n1` [Compound 209, N-{[6-({[(1-hydroxycyclohexyl)methyl]amino}methyl)imidazo [1,2-a]pyridin-2-yl]methyl}-4-oxo-4H-pyrido [1,2-a]pyrimidine-2-carboxamide]: the 50% inhibitory concentration (IC50) in assay [1] (setting [3]) was 0.01 µM; in assay [2], 6.58 µM.

For `O=C(NCc1cn2cc(CNCC3CCCC3)ccc2n1)c1cc(=O)n2ccccc2n1` [Compound 210, N-[(6-{[(cyclopentyl-methyl)amino]methyl}imidazo [1,2-a]pyridin-2-yl)methyl]-4-oxo-4H-pyrido [1,2-a]pyrimidine-2-carboxamide], the IC50 in assay [1] (setting [3]) was 0.0203 µM; in assay [2] it was 5.02 µM.

`O=C(NCc1cn2cc(CNCC3CCC(F)(F)C3)ccc2n1)c1cc(=O)n2ccccc2n1` (stereo not drawn) [Compound 211, N-{[6-({[(3,3-difluorocyclopentyl)methyl]amino}methyl)imidazo [1,2-a]pyridin-2-yl]methyl}-4-oxo-4H-pyrido[1,2-a]pyrimidine-2-carboxamide]: the IC50 worked out at 0.0193 µM in assay [1] (setting [3]) and 11.4 µM in assay [2].

In the case of `O=C(NCc1cn2cc(CNCCC3CC(F)(F)C3)ccc2n1)c1cc(=O)n2ccccc2n1` [Compound 213, N-{[6-({[2-(3,3-difluorocyclo-butyl)ethyl]amino}methyl)imidazo[1,2-a]pyridin-2-yl]methyl}-4-oxo-4H-pyrido [1,2-a]pyrimidine-2-carboxamide], the IC50 in assay [1] (setting [3]) is 0.0418 µM; in assay [2] it was not below 30 µM.

Regarding `O=C(NCc1cn2cc(CNCC3CCC3F)ccc2n1)c1cc(=O)n2ccccc2n1` (stereo not drawn) [Compound 214, N-{[6-({[(2-fluorocyclobutyl)methyl]amino}methyl)imidazo [1,2-a]pyridin-2-yl]methyl}-4-oxo-4H-pyrido [1,2-a]pyrimidine-2-carboxamide], the IC50 was determined as 0.0158 µM in assay [1] (setting [3]) and 7.34 µM in assay [2].

As to `O=C(NCc1cn2cc(CN3CCC4(CC3)CC4)ccc2n1)c1cc(=O)n2ccccc2n1` [Compound 216, N-{[6-({6-azaspiro[2.5]octan-6-yl}methyl)imidazo [1,2-a]pyridin-2-yl]methyl}-4-oxo-4H-pyrido [1,2-a]pyrimidine-2-carboxamide], the IC50 in assay [1] (setting [3]) came to 0.0149 µM; in assay [2], 3.51 µM.

For `O=C(NCc1cn2cc(CNC[C@H]3C[C@H](F)C3)ccc2n1)c1cc(=O)n2ccccc2n1` [Compound 217, 4-oxo-N-({6-[({[(1r,3r)-3-fluorocyclo-butyl]methyl}amino)methyl]imidazo[1,2-a]pyridin-2-yl}methyl)-4H-pyrido[1,2-a] pyrimidine-2-carboxamide], the IC50 in assay [1] (setting [3]) was found to be 0.00758 µM; in assay [2] it was 2.93 µM.

Consider `O=C(NCc1cn2cc(CNCCC3CC3)ccc2n1)c1cc(=O)c2ccccc2o1` [Compound 218], for which the IC50 in assay [1] (setting [3]) was found to be 0.0264 µM; in assay [2] it was 4.71 µM.

On to `O=C(NCc1cn2cc(CCNCc3ccccc3)ccc2n1)c1cc(=O)n2ccccc2n1` [Compound 235, N-({6-[2-(benzylamino)ethyl]imidazo[1,2-a]pyridin-2-yl}methyl)-4-oxo-4H-pyrido[1,2-a]pyrimidine-2-carboxamide], for which the half-maximal inhibitory concentration (IC50) is 0.111 µM in assay [1] (setting [3]) and not below 30 µM in assay [2].

In the case of `O=C(NCc1cn2cc(CCNC3CCCCC3)ccc2n1)c1cc(=O)n2ccccc2n1` [Compound 236, N-({6-[2-(cyclohexylamino)ethyl]imidazo[1,2-a]pyridin-2-yl}methyl)-4-oxo-4H-pyrido[1,2-a]pyrimidine-2-carboxamide], the IC50 in assay [1] (setting [3]) is 0.0287 µM; in assay [2] it was 11.8 µM.

Turning to `O=C(NCc1ccc2nc(CNC(=O)c3cc(=O)n4ccccc4n3)cn2c1)c1ccccc1` [Compound 237, 4-oxo-N-({6-[(phenylformamido)methyl]imidazo[1,2-a]pyridin-2-yl}methyl)-4H-pyrido[1,2-a]pyrimidine-2-carboxamide], the results for the IC50 in assay [1] (setting [3]) and in assay [2] were 0.742 µM and 12.9 µM, respectively.
